Values of other authors as cited in patent USRE42412E1, “Materials and methods for the treatment of gastroesophageal reflux disease” (ARYx Therapeutics, Inc., priority 2000, dated 2011).

Columns and labels:
[1] = target: 5HT4 receptors (Homo sapiens, UniProt Q13639)
[2] = of a dose of cisapride
[3] = between July 1993 and December 1999

5HT4 receptors, sequence (Q13639 whole entry): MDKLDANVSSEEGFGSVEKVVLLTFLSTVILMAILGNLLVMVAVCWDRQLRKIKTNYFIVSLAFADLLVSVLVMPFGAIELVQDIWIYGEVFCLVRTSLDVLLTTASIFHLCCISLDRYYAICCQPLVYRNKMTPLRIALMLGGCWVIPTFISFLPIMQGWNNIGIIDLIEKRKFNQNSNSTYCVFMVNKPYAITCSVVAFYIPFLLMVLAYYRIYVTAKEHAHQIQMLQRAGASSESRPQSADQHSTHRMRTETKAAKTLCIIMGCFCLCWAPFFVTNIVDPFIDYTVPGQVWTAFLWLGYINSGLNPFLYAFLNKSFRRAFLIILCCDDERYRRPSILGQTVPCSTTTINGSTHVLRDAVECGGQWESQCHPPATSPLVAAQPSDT

In the case of `COc1cc(N)c(Cl)cc1C(=O)NC1CCN(CCCOc2ccc(F)cc2)CC1OC` (stereo not shown) [cisapride], the “ligand potency at 5HT4 receptors” value [1] is listed as “potent ligand”, the “fraction of dose metabolized by oxidative N-dealkylation at the piperidine nitrogen or aromatic hydroxylation” value [2] is listed as “More than 90%” and the deaths reported [3] is listed as 80. The “serious cardiac arrhythmias reportedly associated” value ([3]; ventricular tachycardia, ventricular fibrillation, torsades de pointes, QT prolongation) was “at least 341”.
